Test results as given in ChEMBL document CHEMBL4819004, “Discovery of selective CDK9 degraders with enhancing antiproliferative activity through PROTAC conversion” (Eur J Med Chem, 2021).

Experiments:
[1] = test system: HepG2; assay: Antiproliferative activity against human HepG2 cells incubated for 72 hrs by MTT assay; assay type: functional, cell-based; conditions: HepG2, 72 h
[2] = target: T1, Protein cereblon/Cyclin-dependent kinase 9 (Homo sapiens, UniProt P50750+Q96SW2); assay: Protac activity at CRBN/CDK9 in human MV4-11 cells assessed as CDK9 degradation rate at 500 nM incubated for 6 hrs by Western blot assay relative to control; assay type: cell-based
Target sequence in this assay (P50750 whole entry, looked up): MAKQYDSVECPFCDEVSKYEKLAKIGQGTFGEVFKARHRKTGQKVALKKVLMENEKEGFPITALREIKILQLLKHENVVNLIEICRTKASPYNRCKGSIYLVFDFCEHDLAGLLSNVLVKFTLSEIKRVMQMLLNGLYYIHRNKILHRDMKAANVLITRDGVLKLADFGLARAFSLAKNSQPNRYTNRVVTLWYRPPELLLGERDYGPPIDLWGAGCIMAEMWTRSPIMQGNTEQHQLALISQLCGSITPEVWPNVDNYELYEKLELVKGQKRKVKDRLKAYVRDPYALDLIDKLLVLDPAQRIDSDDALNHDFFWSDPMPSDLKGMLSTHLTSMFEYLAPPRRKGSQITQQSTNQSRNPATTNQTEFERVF
Target sequence in this assay (Q96SW2 whole entry, looked up): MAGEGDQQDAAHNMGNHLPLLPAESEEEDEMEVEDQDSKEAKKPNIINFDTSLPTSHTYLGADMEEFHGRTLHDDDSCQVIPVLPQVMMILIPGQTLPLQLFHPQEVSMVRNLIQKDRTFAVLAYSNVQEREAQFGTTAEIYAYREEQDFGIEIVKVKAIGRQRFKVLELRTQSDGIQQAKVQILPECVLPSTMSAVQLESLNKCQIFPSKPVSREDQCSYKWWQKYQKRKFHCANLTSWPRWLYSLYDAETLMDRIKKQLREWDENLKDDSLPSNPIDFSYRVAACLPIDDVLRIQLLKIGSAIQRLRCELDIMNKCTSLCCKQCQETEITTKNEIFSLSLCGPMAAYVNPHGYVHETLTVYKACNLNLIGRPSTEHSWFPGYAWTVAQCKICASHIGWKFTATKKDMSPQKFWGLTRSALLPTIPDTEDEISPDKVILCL

[3] = target: T1, Protein cereblon/Cyclin-dependent kinase 9; assay: Protac activity at CRBN/CDK9 in human MOLM-13 cells assessed as CDK9 degradation rate at 500 nM incubated for 6 hrs by Western blot assay relative to control; assay type: cell-based
Target sequence in this assay (P50750 whole entry, looked up): as the sequence (P50750 whole entry, looked up) above
Target sequence in this assay (Q96SW2 whole entry, looked up): as the sequence (Q96SW2 whole entry, looked up) above

[4] = test system: MCF7; assay: Antiproliferative activity against human MCF7 cells incubated for 72 hrs by MTT assay; assay type: functional, cell-based; conditions: MCF7, 72 h
[5] = test system: MV4-11; assay: Antiproliferative activity against human MV4-11 cells incubated for 72 hrs by MTT assay; assay type: functional, cell-based; conditions: MV4-11, 72 h
[6] = test system: A549; assay: Antiproliferative activity against human A549 cells incubated for 72 hrs by MTT assay; assay type: functional, cell-based; conditions: A549, 72 h
[7] = test system: MOLM-13; assay: Antiproliferative activity against human MOLM-13 cells incubated for 72 hrs by MTT assay; assay type: functional, cell-based; conditions: MOLM-13, 72 h
[8] = test system: B16; assay: Antiproliferative activity against mouse B16 cells incubated for 72 hrs by MTT assay; assay type: functional, cell-based; conditions: B16, 72 h
[9] = target: CDK9/cyclin T1 (Homo sapiens, UniProt P50750); assay: Inhibition of CDK9/cyclin T (unknown origin) using YSPTSPSYSPTSPSYSPTSPKKK or histone H1 as substrate incubated for 2 hrs in presence of [gamma-33P]ATP by radioactive filter binding assay; assay type: protein-complex assay
Sequence of CDK9/cyclin T1 (O60563 whole entry): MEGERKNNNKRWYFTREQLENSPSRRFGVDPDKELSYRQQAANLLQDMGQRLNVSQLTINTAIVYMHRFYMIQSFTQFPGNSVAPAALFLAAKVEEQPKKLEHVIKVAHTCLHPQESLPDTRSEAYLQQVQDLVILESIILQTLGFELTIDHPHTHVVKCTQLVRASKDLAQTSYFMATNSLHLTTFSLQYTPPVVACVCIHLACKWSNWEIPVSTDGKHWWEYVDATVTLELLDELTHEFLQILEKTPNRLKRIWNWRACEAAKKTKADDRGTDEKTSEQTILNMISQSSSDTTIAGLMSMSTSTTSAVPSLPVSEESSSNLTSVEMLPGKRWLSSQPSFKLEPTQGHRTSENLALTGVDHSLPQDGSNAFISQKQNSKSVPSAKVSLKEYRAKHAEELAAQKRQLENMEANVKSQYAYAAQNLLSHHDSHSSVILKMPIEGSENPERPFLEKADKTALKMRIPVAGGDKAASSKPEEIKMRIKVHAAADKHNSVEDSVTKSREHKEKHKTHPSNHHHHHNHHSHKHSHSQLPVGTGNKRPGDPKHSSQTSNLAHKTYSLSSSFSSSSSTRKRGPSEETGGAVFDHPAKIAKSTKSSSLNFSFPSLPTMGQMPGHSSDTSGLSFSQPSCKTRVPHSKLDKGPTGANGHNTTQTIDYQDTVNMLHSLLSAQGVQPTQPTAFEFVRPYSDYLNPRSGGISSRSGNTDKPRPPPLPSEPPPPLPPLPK
Sequence of CDK9/cyclin T1 (P50750 whole entry): as the sequence (P50750 whole entry, looked up) above

[10] = test system: HCT-116; assay: Antiproliferative activity against human HCT-116 cells incubated for 72 hrs by MTT assay; assay type: functional, cell-based; conditions: HCT-116, 72 h
[11] = test system: MV4-11; assay: Induction of apoptosis in human MV4-11 cells assessed as necrotic cells at 500 nM after 6 hrs by AnnexinV-FITC/propidium iodide staining based flow cytometry (reference value: 0.16 %); assay type: functional
[12] = test system: MV4-11; assay: Induction of apoptosis in human MV4-11 cells assessed as total apoptotic cells at 500 nM after 6 hrs by AnnexinV-FITC/propidium iodide staining based flow cytometry (reference value: 9.75 %); assay type: functional
[13] = test system: MV4-11; assay: Induction of apoptosis in human MV4-11 cells assessed as viable cells at 500 nM after 6 hrs by AnnexinV-FITC/propidium iodide staining based flow cytometry (reference value: 90.1 %); assay type: functional; conditions: read-out: Activity
[14] = test system: MV4-11; assay: Induction of apoptosis in human MV4-11 cells assessed as late apoptotic cells at 500 nM after 6 hrs by AnnexinV-FITC/propidium iodide staining based flow cytometry (reference value: 4.29%); assay type: functional
[15] = test system: MV4-11; assay: Induction of apoptosis in human MV4-11 cells assessed as early apoptotic cells at 500 nM after 6 hrs by AnnexinV-FITC/propidium iodide staining based flow cytometry (reference value: 5.36 %); assay type: functional
[16] = target: T1, Protein cereblon/Cyclin-dependent kinase 9; assay: Protac activity at CRBN/CDK9 in human MV4-11 cells assessed as induction of CDK9 degradation incubated for 6 hrs by Western blot assay; assay type: cell-based
Target sequence in this assay (P50750 whole entry): as the sequence (P50750 whole entry, looked up) above
Target sequence in this assay (Q96SW2 whole entry): as the sequence (Q96SW2 whole entry, looked up) above

| Structure (SMILES) | IC50 [1] [µM] | Activity [2] [%] | Activity [3] [%] | IC50 [4] [µM] | IC50 [5] [µM] | IC50 [6] [µM] | IC50 [7] [µM] | IC50 [8] [µM] | IC50 [9] [µM] | IC50 [10] [µM] | Activity [11] [%] | Activity [12] [%] | viability at 0.5 µM [13] [%] | Activity [14] [%] | Activity [15] [%] | DC50 [16] [µM] |
| --- | --- | --- | --- | --- | --- | --- | --- | --- | --- | --- | --- | --- | --- | --- | --- | --- |
| COc1cc(N2CCN(CCCCCCCC(=O)NCCNc3cccc4c3C(=O)N(C3CCC(=O)NC3=O)C4=O)CC2)ccc1-c1ncnc(Nc2cccc(CS(C)(=N)=O)c2)n1 (configuration not stated) | > 50 | 33 | 23 | > 50 | 4.9 | > 50 | > 50 | > 50 | 6.87 | > 50 |  |  |  |  |  |  |
| COc1cc(F)ccc1-c1ncnc(Nc2cccc(CS(C)(=O)=NC(=O)COCCOCCOCC(=O)NCCNc3cccc4c3C(=O)N(C3CCC(=O)NC3=O)C4=O)c2)n1 (configuration not stated) | 17.5 | 51 | 0 | 20.8 | 0.27 | 13.2 | 0.65 | 18.4 | 0.0149 | 12.2 |  |  |  |  |  |  |
| COc1cc(F)ccc1-c1ncnc(Nc2cccc(CS(C)(=O)=NC(=O)CCCCCC(=O)NCCNc3cccc4c3C(=O)N(C3CCC(=O)NC3=O)C4=O)c2)n1 (configuration not stated) | 16.4 | 88.8 | 66 | 5.34 | 0.18 | 1.44 | 1.11 | 6.68 | 0.0144 | 8.04 |  |  |  |  |  |  |
| COc1cc(F)ccc1-c1ncnc(Nc2cccc(C[S@](C)(=N)=O)c2)n1 [ATUVECICLIB] | 2.7 | 0 | 0 | 5.52 | 0.56 | 3.29 | 0.2 | 1.47 |  | 2.94 | 0.26 | 21.1 | 78.6 | 15.7 | 4.99 |  |
| COc1cc(N2CCN(CCCCCC(=O)NCCNc3cccc4c3C(=O)N(C3CCC(=O)NC3=O)C4=O)CC2)ccc1-c1ncnc(Nc2cccc(CS(C)(=N)=O)c2)n1 (configuration not stated) | > 50 | 62 | 24 | > 50 | 7.71 | > 50 | > 50 | > 50 | 8.11 | > 50 |  |  |  |  |  |  |
| COc1cc(F)ccc1-c1ncnc(Nc2cccc(CS(C)(=O)=NC(=O)CCCCCCCCCC(=O)NCCNc3cccc4c3C(=O)N(C3CCC(=O)NC3=O)C4=O)c2)n1 (configuration not stated) | 8.61 | 100 | 99 | 4.79 | 0.039 | 2.28 | 0.38 | 1.72 | 0.0107 | 3.23 |  |  |  |  |  | 0.0312 |
| COc1cc(F)ccc1-c1ncnc(Nc2cccc(CS(C)(=O)=NC(=O)COCCOCCOCC(=O)NCCCCCNc3cccc4c3C(=O)N(C3CCC(=O)NC3=O)C4=O)c2)n1 (configuration not stated) | 8.51 | 100 | 99 | 10.2 | 0.25 | 6.15 | 0.48 | 3.35 | 0.00935 | 3.1 |  |  |  |  |  |  |
| COc1cc(F)ccc1-c1ncnc(Nc2cccc(CS(C)(=O)=NC(=O)CCc3cn(CCCCCCCC(=O)NCCNc4cccc5c4C(=O)N(C4CCC(=O)NC4=O)C5=O)nn3)c2)n1 (configuration not stated) | 4.65 | 100 | 100 | 11.4 | 0.18 | 4.14 | 0.2 | 3.07 | 0.00925 | 5.51 |  |  |  |  |  | 0.0103 |
| COc1cc(F)ccc1-c1ncnc(Nc2cccc(CS(C)(=O)=NC(=O)CCC(=O)CCC(=O)NCCCCCNc3cccc4c3C(=O)N(C3CCC(=O)NC3=O)C4=O)c2)n1 (configuration not stated) | 8.58 | 67 | 45 | 15.5 | 1.1 | 11.1 | 0.74 | 8.64 | 0.0857 | 4.77 |  |  |  |  |  |  |
| COc1cc(F)ccc1-c1ncnc(Nc2cccc(CS(C)(=O)=NC(=O)CCCC(=O)NCCNc3cccc4c3C(=O)N(C3CCC(=O)NC3=O)C4=O)c2)n1 (configuration not stated) | 19.1 | 100 | 99 | 24.8 | 0.46 | 35.6 | 2.8 | 22.1 | 0.0127 | 20.6 |  |  |  |  |  | 0.0273 |
| COc1cc(F)ccc1-c1ncnc(Nc2cccc(CS(C)(=O)=NC(=O)CCC(=O)CCC(=O)NCCNc3cccc4c3C(=O)N(C3CCC(=O)NC3=O)C4=O)c2)n1 (configuration not stated) | 3.36 | 98 | 98 | 5.18 | 0.07 | 3.21 | 0.13 | 1.75 | 0.0102 | 3 |  |  |  |  |  |  |
| COc1cc(N2CCN(CCCCCCCCCC(=O)NCCNc3cccc4c3C(=O)N(C3CCC(=O)NC3=O)C4=O)CC2)ccc1-c1ncnc(Nc2cccc(CS(C)(=N)=O)c2)n1 (configuration not stated) | > 50 | 44 | 49 | > 50 | 2.6 | > 50 | > 50 | > 50 | 6.34 | > 50 |  |  |  |  |  |  |
| COc1cc(F)ccc1-c1ncnc(Nc2cccc(CS(C)(=O)=NC(=O)CCCCCC(=O)NCCCCCNc3cccc4c3C(=O)N(C3CCC(=O)NC3=O)C4=O)c2)n1 (configuration not stated) | 4.15 | 95 | 65 | 8.02 | 0.45 | 11.9 | 0.47 | 3.5 | 0.0139 | 1.42 |  |  |  |  |  |  |
| COc1cc(N2CCN(CCCCCCC(=O)NCCNc3cccc4c3C(=O)N(C3CCC(=O)NC3=O)C4=O)CC2)ccc1-c1ncnc(Nc2cccc(CS(C)(=N)=O)c2)n1 (configuration not stated) | > 50 | 52 | 7 | > 50 | 3.8 | > 50 | > 50 | > 50 | 6.56 | > 50 |  |  |  |  |  |  |
| COc1cc(F)ccc1-c1ncnc(Nc2cccc(CS(C)(=O)=NC(=O)CCc3cn(CCCCCC(=O)NCCNc4cccc5c4C(=O)N(C4CCC(=O)NC4=O)C5=O)nn3)c2)n1 (configuration not stated) | 10.3 | 88.8 | 66 | 24.5 | 0.72 | 8.35 | 0.99 | 16.2 | 0.0114 | 16.4 |  |  |  |  |  |  |
